Laboratory results: patent publication US20240189385A1, “KEAP1/NRF2 PROTEIN-LIKE POLYMERS” (Northwestern University, priority 2021, published 2024)
Ends that are not written are not given here.

These compounds were tested on Antioxidant Response Element (ARE), Nrf2 antioxidant pathway (assay: Antioxidant Response Element (ARE) luciferase reporter assay). Settings: 0 μM to 50 μM with respect to peptide; 24 hours; FIGS. 38A, 38B.
Type: cell-based
Description: The Antioxidant Response Element (ARE) Luciferase Reporter HepG2 Cell line was used to probe Nrf2 antioxidant pathway activation. ARE-HepG2 cells were cultured in growth media (BPS bioscience) according to manufacturer's recommendations. […] PLPs and peptides were tested at concentrations ranging from 0 μM to 50 μM with respect to peptide along with controls (untreated and tBHQ positive control at 100 μM) in triplicate. Cells were incubated for 24 hours post-treatment. ONE-step luciferase assay reagent was added at 100 μL/well, followed by rocking at room temperature for 15 min. Luminescence was assessed using a Biotek SynergyNeo2 plate reader. Background luminescence of cell free controls wells was subtracted from test wells. ARE activation was reported as luminescence relative to the average of the untreated controls wells.

Compound	ARE activation
CC(C)C[C@H](NC(=O)[C@H](Cc1ccccc1)NC(=O)[C@H](CCC(=O)O)NC(=O)CNC(=O)[C@@H](NC(=O)[C@H](CCC(=O)O)NC(=O)[C@@H]1CCCN1C(=O)[C@H](CC(=O)O)NC(=O)[C@@H](N)CC(C)C)[C@@H](C)O)C(=O)N[C@@H](CCCNC(=N)N)C(=O)N[C@@H](CCCNC(=N)N)C(=O)N[C@@H](CCCNC(=N)N)C(=O)N[C@@H](CCCNC(=N)N)C(N)=O [SEQ ID NO: 72]	did not activate ARE
Full Scramble PLP: full scramble polynorbornene dicarboxyimide-based brush polymer comprising SEQ ID NO: 143 (DERLERPLTRGFR) peptide monomer, Example 13 (also: part of polynorbornene dicarboxyimide-based brush polymer) [reference compound]	did not activate ARE
ScrambleR PLP: scrambleRRRR polynorbornene dicarboxyimide-based brush polymer comprising SEQ ID NO: 146 (DELEPLTGFRRRR) peptide monomer, Example 14 (also: part of polynorbornene dicarboxyimide-based brush polymer) [reference compound]	did not activate ARE
